From PubChem BioAssay (NCI)
Values joined by “and” are separate entries in the source; they are usually repeats but may differ in a detail not shown here. Identical values can stand only once.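 Dose response: 5 concentrations. Exposure: 48 h. Format: 96-well plates. Endpoint: linear interpolation; highest concentration if not reached. GI50 marks 50% less growth. The concentration for full growth arrest is given as TGI.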

Assays:
Assay in all cases: growth of human tumour cells (NCI), 48 h
M14 melanoma = system: M14 melanoma
HOP-62 NSCLC = system: HOP-62 NSCLC
HCT-15 colon = system: HCT-15 colon
ACHN renal = system: ACHN renal
MALME-3M melanoma = system: MALME-3M melanoma
SF-295 CNS = system: SF-295 CNS
SF-539 CNS = system: SF-539 CNS
RXF 393 renal = system: RXF 393 renal
SN12C renal = system: SN12C renal
EKVX NSCLC = system: EKVX NSCLC

| SMILES | GI50 (M14 melanoma) [µM] | TGI (M14 melanoma) | GI50 (HOP-62 NSCLC) [µM] | TGI (HOP-62 NSCLC) [µM] | GI50 (HCT-15 colon) [µM] | TGI (HCT-15 colon) | GI50 (ACHN renal) [µM] | TGI (ACHN renal) | GI50 (MALME-3M melanoma) [µM] | TGI (MALME-3M melanoma) [µM] | GI50 (SF-295 CNS) [µM] | TGI (SF-295 CNS) [µM] | GI50 (SF-539 CNS) [µM] | TGI (SF-539 CNS) | GI50 (RXF 393 renal) [µM] | TGI (RXF 393 renal) | GI50 (SN12C renal) [µM] | TGI (SN12C renal) | GI50 (EKVX NSCLC) [µM] | TGI (EKVX NSCLC) [µM] |
| --- | --- | --- | --- | --- | --- | --- | --- | --- | --- | --- | --- | --- | --- | --- | --- | --- | --- | --- | --- | --- |
| CC(=O)[CH-]C(=O)c1ccccc1.CC(=O)[CH-]C(=O)c1ccccc1.[O-]c1ccc(O)cc1.[O-]c1ccc(O)cc1.[Ti+4] | 15.6 | 30.8 µM | 18.8 | 41.5 | 15.7 | 37.6 µM | 14.7 | 28.1 µM | 18.1 | 33.5 | 16.5 | 34.3 | 11.7 | 24.1 µM | 6.64 | 20.5 µM | 14.3 | 36.4 µM |  |  |
| c1ccc2c(c1)[Se]c1ccccc1[Se]2 |  | > 100 µM |  | > 100 |  |  |  | > 100 µM |  | > 100 |  | 73.8 |  | > 100 µM |  | > 100 µM |  | > 100 µM |  |  |
| COc1ccc(/C=C2/CCOC2=O)cc1 | > 100 | > 100 µM | > 100 | > 100 | > 100 | > 100 µM | > 100 | > 100 µM | > 100 | > 100 |  |  | > 100 | > 100 µM | > 100 | > 100 µM | > 100 | > 100 µM |  |  |
| CC(=O)OC1C(O)COC(Oc2c(C)c3c4c(c2O)[C@@H](C)CC[C@@H]4[C@@H](C)C[C@H]3C=C(C)C)C1O (stereo not given in full) | 14.6 | 31.5 µM | 15.4 | 32.5 | 15.2 | 31.7 µM | 18.7 | 42.5 µM | 15.3 | 30.1 | 18.1 | 35.7 |  |  | 7.81 | 25.4 µM | 19.3 | 44.5 µM |  |  |
| COc1ccc(CNCCCN2C(=O)c3ccc4c5c(ccc(c35)C2=O)C(=O)N(CCCNCCCCNCCCN)C4=O)c(OC)c1OC | 1.66 | 3.57 µM | 1.4 | 8.97 | 2.76 | 7.94 µM |  |  | 1.21 | 2.76 | 2.35 | 15.9 | 2.23 | 5.3 µM | 1.36 | 3.67 µM |  |  | 4.05 | 19.3 |
| CCC(=O)[O-].CCC(=O)[O-].N.N.N.N.[Co+3].[O-][Cl+3]([O-])([O-])[O-] | > 100 | > 100 µM | > 100 | > 100 | > 100 | > 100 µM | > 100 | > 100 µM | > 100 | > 100 | > 100 | > 100 | > 100 | > 100 µM |  |  | > 100 | > 100 µM | > 100 | > 100 |
| COc1cccc(C(=O)O)c1Cc1cccc2ccccc12 |  | > 100 µM |  | > 100 |  | > 100 µM |  | > 100 µM |  | > 100 |  | > 100 |  |  |  | > 100 µM |  | > 100 µM |  | > 100 |
| O=c1c2ccccc2c(C=NCCNCCO)c2oc3ccccc3n12 | 15.6 | 29.5 µM | 13 | 25.6 | 10.1 | 23.9 µM | 3.54 | 14.9 µM |  |  | 3.72 | 13.6 | 3.51 | 12.2 µM | 4.96 | 22.6 µM | 4.34 | 18.3 µM | 9.3 | 21.2 |
| CN([N-]C(=O)CC(=O)[N-]N(C)C(=S)c1ccccc1)C(=S)c1ccccc1.[Cu+2] | 0.0377 | 0.172 µM | 0.134 | 0.275 | 0.0228 | 0.13 µM | 0.0825 | 0.22 µM | 0.0194 | 0.0585 | 0.0635 | 0.225 | 0.142 | 0.275 µM | 0.0266 | 0.0729 µM | 0.124 | 0.253 µM |  |  |
| NCC(=O)OCN1C(=O)C2C3C=CC(C2C1=O)C1C2C(=O)N(COC(=O)CN)C(=O)C2C31 (stereo not given) |  | 35.3 µM and 33.9 µM |  | > 100 |  | 36.9 µM and 34.8 µM |  | 67.6 µM and 62.1 µM |  |  |  | > 100 |  | 68.9 µM and 38.2 µM |  | 37.9 µM and 42.3 µM |  | 48.4 µM and 50.7 µM |  | > 100 |
| COc1cccc(NC(=O)c2ccc(C(F)(F)F)nc2Nc2ccc(Cl)cc2C)c1 | 16.9 | 32.5 µM | 17.4 | 32.1 | 11 | 22.9 µM |  |  |  |  | 12.4 | 28.6 | 15.1 | 30.5 µM | 1.17 | 15.4 µM | 12.4 | 25.7 µM | 10.2 | 24.2 |
| N#C/C(=C/c1cccs1)c1cccs1 |  |  | > 100 | > 100 | > 100 | > 100 µM | > 100 | > 100 µM | > 100 | > 100 | > 100 | > 100 | > 100 | > 100 µM | 38 | > 100 µM | > 100 | > 100 µM | > 100 | > 100 |
| CCCN(CCC)c1ccc(C=O)c(OC)c1 |  |  | 32 | > 100 | 24.1 | > 100 µM | 21.4 | > 100 µM | 18.7 | 64.6 | 15.8 | 64.5 | 26 | > 100 µM | 26.9 | > 100 µM | 32.7 | > 100 µM | 16.1 | 76.1 |
| CCN(CCc1ccc(F)cc1)c1ccc(CO)c(Cl)c1 | 13.8 | 28.7 µM | 13.1 | 26.2 | 9.84 | 24.6 µM | 9.59 | 22.5 µM | 16 | 31.1 | 3.44 | 17.6 | 15.7 | 29.3 µM | 4.72 | 19.9 µM | 9.27 | 23 µM |  |  |
| CC1=C(CC/C(C)=C/CCC2(C)CCC([C@H](C)C(=O)O)OO2)C(C)(C)CCC1 (stereo not given in full) (tested in a mixture with another compound) |  | > 100 µM |  | > 100 |  |  |  | > 100 µM |  | > 100 |  | > 100 |  | > 100 µM |  | > 100 µM |  | > 100 µM |  | > 100 |
